Source: the NIST ThermoML archive (doi:10.1021/je060271a)
Values joined by “and” are separate entries in the source; they are usually repeats but may differ in a detail not shown here. Equal values may be shown once.

Conditions: Liquid, Vibrating tube method

CCCC(=O)OCC(COC(=O)CCC)(COC(=O)CCC)COC(=O)CCC [pentaerythritol tetrabutyrate]
Conditions	mass density
323.15 K, 30112 kPa	1045 kg/m3
323.15 K, 30149 kPa	1045.1 kg/m3
323.15 K, 30193 kPa	1045.1 kg/m3
323.15 K, 30232 kPa	1045.2 kg/m3
323.15 K, 30562 kPa	1045.3 kg/m3
323.15 K, 30601 kPa	1045.3 kg/m3
323.15 K, 30640 kPa	1045.5 kg/m3
323.15 K, 30680 kPa	1045.4 kg/m3
323.15 K, 30730 kPa	1045.5 kg/m3
323.15 K, 30771 kPa	1045.5 kg/m3
323.15 K, 30818 kPa	1045.4 kg/m3
323.15 K, 30850 kPa	1045.6 kg/m3
323.15 K, 30881 kPa	1045.6 kg/m3
323.15 K, 30918 kPa	1045.7 kg/m3
323.15 K, 30948 kPa	1045.6 kg/m3
323.15 K, 30979 kPa	1045.6 kg/m3
323.15 K, 31009 kPa	1045.7 kg/m3
323.15 K, 31047 kPa	1045.6 kg/m3
323.15 K, 31079 kPa	1045.6 kg/m3
323.15 K, 31110 kPa	1045.6 kg/m3
323.15 K, 31146 kPa	1045.7 kg/m3
323.15 K, 31178 kPa	1045.9 kg/m3
323.15 K, 31209 kPa	1045.6 kg/m3
323.15 K, 31247 kPa	1045.7 kg/m3
323.15 K, 31278 kPa	1045.7 kg/m3
323.15 K, 31310 kPa	1045.8 kg/m3
323.15 K, 31347 kPa	1045.9 kg/m3
323.15 K, 31379 kPa	1045.9 kg/m3
323.15 K, 31411 kPa	1045.8 kg/m3
323.15 K, 31450 kPa	1045.8 kg/m3
323.15 K, 31481 kPa	1045.9 kg/m3
323.15 K, 31513 kPa	1045.9 kg/m3
323.15 K, 31546 kPa	1046 kg/m3
323.15 K, 31584 kPa	1045.9 kg/m3
323.15 K, 31616 kPa	1046 kg/m3
323.15 K, 31649 kPa	1046 kg/m3
323.15 K, 31690 kPa	1046 kg/m3
323.15 K, 31725 kPa	1046 kg/m3
323.15 K, 31758 kPa	1046 kg/m3
323.15 K, 31791 kPa	1046 kg/m3
323.15 K, 31830 kPa	1046.2 kg/m3
323.15 K, 31863 kPa	1046.2 kg/m3
323.15 K, 31896 kPa	1046.1 kg/m3
323.15 K, 31936 kPa	1046.2 kg/m3
323.15 K, 31970 kPa	1046.2 kg/m3
323.15 K, 32003 kPa	1046.3 kg/m3
323.15 K, 32043 kPa	1046.2 kg/m3
323.15 K, 32151 kPa	1046.3 kg/m3
323.15 K, 32179 kPa	1046.3 kg/m3
323.15 K, 32219 kPa	1046.4 kg/m3
323.15 K, 32253 kPa	1046.3 kg/m3
323.15 K, 32288 kPa	1046.4 kg/m3
323.15 K, 32328 kPa	1046.5 kg/m3
323.15 K, 32362 kPa	1046.4 kg/m3
323.15 K, 32403 kPa	1046.5 kg/m3
323.15 K, 32437 kPa	1046.5 kg/m3
323.15 K, 32472 kPa	1046.5 kg/m3
323.15 K, 32506 kPa	1046.5 kg/m3
323.15 K, 32548 kPa	1046.5 kg/m3
323.15 K, 32583 kPa	1046.6 kg/m3
323.15 K, 32618 kPa	1046.6 kg/m3
323.15 K, 32660 kPa	1046.7 kg/m3
323.15 K, 32694 kPa	1046.6 kg/m3
323.15 K, 32737 kPa	1046.6 kg/m3
323.15 K, 32772 kPa	1046.7 kg/m3
323.15 K, 32808 kPa	1046.9 kg/m3
323.15 K, 32843 kPa	1046.6 kg/m3
323.15 K, 32886 kPa	1046.8 kg/m3
323.15 K, 32921 kPa	1046.8 kg/m3
323.15 K, 33152 kPa	1046.9 kg/m3
323.15 K, 33188 kPa	1047 kg/m3
323.15 K, 33232 kPa	1046.9 kg/m3
323.15 K, 33268 kPa	1047 kg/m3
323.15 K, 33305 kPa	1046.9 kg/m3
323.15 K, 33386 kPa	1047 kg/m3
323.15 K, 33430 kPa	1047.1 kg/m3
323.15 K, 33468 kPa	1047.2 kg/m3
323.15 K, 33504 kPa	1047.1 kg/m3
323.15 K, 33549 kPa	1047.2 kg/m3
323.15 K, 33587 kPa	1047.2 kg/m3
323.15 K, 33625 kPa	1047.2 kg/m3
323.15 K, 33664 kPa	1047.2 kg/m3
323.15 K, 33690 kPa	1047.2 kg/m3
323.15 K, 33710 kPa	1047.3 kg/m3
323.15 K, 33750 kPa	1047.2 kg/m3
323.15 K, 33797 kPa	1047.3 kg/m3
323.15 K, 33837 kPa	1047.4 kg/m3
323.15 K, 34013 kPa	1047.4 kg/m3
323.15 K, 34067 kPa	1047.4 kg/m3
323.15 K, 34113 kPa	1047.7 kg/m3
323.15 K, 34161 kPa	1047.5 kg/m3
323.15 K, 34221 kPa	1047.5 kg/m3
323.15 K, 34272 kPa	1047.7 kg/m3
323.15 K, 34276 kPa	1047.6 kg/m3
323.15 K, 34313 kPa	1047.6 kg/m3
323.15 K, 34342 kPa	1047.6 kg/m3
323.15 K, 34379 kPa	1047.7 kg/m3
323.15 K, 34410 kPa	1047.7 kg/m3
323.15 K, 34436 kPa	1047.7 kg/m3
323.15 K, 34450 kPa	1047.8 kg/m3
323.15 K, 34468 kPa	1047.9 kg/m3
323.15 K, 34568 kPa	1047.8 kg/m3
323.15 K, 34570 kPa	1047.8 kg/m3 and 1047.9 kg/m3
323.15 K, 34571 kPa	1047.7 kg/m3
323.15 K, 34572 kPa	1047.7 kg/m3 and 1047.9 kg/m3 and 1047.8 kg/m3
343.13 K, 2755.8 kPa	1010.1 kg/m3
343.13 K, 2840 kPa	1010.2 kg/m3
343.13 K, 4339.6 kPa	1011.5 kg/m3
343.14 K, 104.4 kPa	1008.1 kg/m3
343.14 K, 105.3 kPa	1008.1 kg/m3
343.14 K, 105.8 kPa	1008.1 kg/m3
343.14 K, 106.3 kPa	1008.1 kg/m3
343.14 K, 107.5 kPa	1008.2 kg/m3
343.14 K, 108.6 kPa	1008.2 kg/m3
343.14 K, 110.3 kPa	1008.1 kg/m3
343.14 K, 112.9 kPa	1008.2 kg/m3
343.14 K, 116.2 kPa	1008.1 kg/m3
343.14 K, 121.8 kPa	1008.1 kg/m3
343.14 K, 129.6 kPa	1008.1 kg/m3
343.14 K, 141.1 kPa	1008.3 kg/m3
343.14 K, 155.9 kPa	1008.2 kg/m3
343.14 K, 167 kPa	1008.1 kg/m3
343.14 K, 181.6 kPa	1008.1 kg/m3
343.14 K, 200 kPa	1008.2 kg/m3
343.14 K, 216 kPa	1008.1 kg/m3
343.14 K, 226.6 kPa	1008.2 kg/m3
343.14 K, 238.6 kPa	1008.3 kg/m3
343.14 K, 252.1 kPa	1008.2 kg/m3
343.14 K, 267.4 kPa	1008.2 kg/m3
343.14 K, 284.6 kPa	1008.3 kg/m3
343.14 K, 304.8 kPa	1008.3 kg/m3
343.14 K, 328.1 kPa	1008.2 kg/m3
343.14 K, 354.2 kPa	1008.2 kg/m3
343.14 K, 383.4 kPa	1008.3 kg/m3
343.14 K, 404.4 kPa	1008.4 kg/m3
343.14 K, 419.5 kPa	1008.4 kg/m3
343.14 K, 436.2 kPa	1008.5 kg/m3
343.14 K, 541.8 kPa	1008.4 kg/m3
343.14 K, 568.7 kPa	1008.5 kg/m3
343.14 K, 598.4 kPa	1008.6 kg/m3
343.14 K, 626.6 kPa	1008.5 kg/m3
343.14 K, 662.6 kPa	1008.4 kg/m3
343.14 K, 698.7 kPa	1008.5 kg/m3
343.14 K, 717.3 kPa	1008.6 kg/m3
343.14 K, 736.7 kPa	1008.6 kg/m3
343.14 K, 752.7 kPa	1008.6 kg/m3
